Common to all, as to assay: NCI tumour cell line growth inhibition, 48 h
The test system of experiment [1] is TK-10 renal.
In experiment [2] the test system is SW-620 colon.
Experiment [3] deals with SR leukemia.
For experiment [4], the system named is SNB-75 CNS.
Experiment [5] concerns A549 NSCLC.
Experiment [6] deals with MALME-3M melanoma.
In experiment [7] the test system is NCI-H522 lung.
For experiment [8], the system named is NCI-H23 lung.

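Cells were grown in 96-well plates and exposed to each compound for 48 hours at five concentrations; endpoints were interpolated linearly between bracketing concentrations, or set to the highest concentration if not reached. GI50 is the concentration that inhibits growth by half. The concentration for full growth arrest is given as TGI.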

In the case of `Cn1c(=O)n(C)c2cc(CNCCNc3ccnc4cc(Cl)ccc34)ccc21`, the GI50 in experiment [1] is 40.2 µM; in experiment [2] it was 34.6 µM; in experiment [3], 16.3 µM; in experiment [4], 13.1 µM; in experiment [5] it was 50.3 µM; in experiment [6] it was 16.6 µM. The figures for the GI50 in experiment [7] and in experiment [8] were 30.2 µM and 48.8 µM, respectively. For the same compound, the TGI in experiment [1] was > 100 µM; in experiment [2] it was > 100 µM; in experiment [3], 48.2 µM; in experiment [4], 35.6 µM; in experiment [5] it was > 100 µM; in experiment [6] it was 32.9 µM. The TGI is 93.3 µM in experiment [7] and > 100 µM in experiment [8].

For the compound `Clc1ccc(/C=C/c2ccc3ccccc3n2)cc1`, the GI50 in experiment [1] was 5.24 µM; in experiment [2] it was 0.553 µM; in experiment [3], 0.443 µM; in experiment [4] it was 2.63 µM; in experiment [5] it was 1.75 µM; in experiment [6], 0.934 µM. The GI50 was 0.255 µM in experiment [7] and 3.08 µM in experiment [8]. Also, the TGI in experiment [1] was > 100 µM; in experiment [2], > 100 µM; in experiment [3] it was 4.12 µM; in experiment [4], > 67.1 µM; in experiment [5], > 100 µM; in experiment [6], 71.8 µM. Further, the TGI is 0.763 µM in experiment [7] and > 100 µM in experiment [8].

`CCOC(=O)c1sc(-c2ccc(OS(=O)(=O)C[C@]34CCC(CC3=O)C4(C)C)c(C=O)c2)nc1C`: the GI50 is 0.721 µM in experiment [1]; 1.04 µM in experiment [2]; 0.66 µM in experiment [3]; 0.781 µM in experiment [4]; 1.25 µM in experiment [5]; 1.08 µM in experiment [6]. For the same compound, the GI50 in experiment [7] is 1.02 µM; in experiment [8], 1.04 µM. Further, the TGI was 4.48 µM in experiment [1]; 2.69 µM in experiment [2]; 3.27 µM in experiment [3]; 2.8 µM in experiment [4]; > 50 µM in experiment [5]; 2.65 µM in experiment [6]. In addition, the figures for the TGI in experiment [7] and in experiment [8] were 2.89 µM and 2.64 µM, respectively.

Turning to `COc1cc(F)ccc1-c1cc(Nc2cc(CS(C)(=N)=O)ccn2)ncc1F` (centres undefined), the GI50 in experiment [1] was 0.151 µM; in experiment [2], 0.0559 µM; in experiment [3] it was 0.0174 µM; in experiment [4] it was 0.0663 µM; in experiment [5], 0.105 µM; in experiment [6], 0.2 µM. For the same compound, the GI50 in experiment [7] is 0.248 µM; in experiment [8], 0.0982 µM. The TGI was > 100 µM in experiment [1]; > 33.1 µM in experiment [2]; 1.29 µM in experiment [3]; 0.433 µM in experiment [4]; > 100 µM in experiment [5]; 2.17 µM in experiment [7]. In experiment [8], this compound returned a TGI of 1.24 µM.

On to `CC12CC(=O)Nc3ccccc3N1C(c1ccccc1)=NO2` (centres undefined), for which the TGI in experiment [1], in experiment [2], in experiment [3], in experiment [4], in experiment [5] and in experiment [6] was > 100 µM each time. Further, the TGI in experiment [7] and in experiment [8] was > 100 µM each time.

Consider `C=C1C(=O)O[C@H]2[C@H]1CC/C(COC(=O)N[C@H]1C[C@H](O[C@H]3C[C@](O)(C(=O)CO)Cc4c(O)c5c(c(O)c43)C(=O)c3c(OC)cccc3C5=O)O[C@@H](C)[C@H]1O)=C\CC[C@@]1(C)O[C@@H]21`, for which the GI50 in experiment [1] was 9 µM; in experiment [2], 1.15 µM; in experiment [3], 1.02 µM; in experiment [4], 6.97 µM; in experiment [5] it was > 50 µM; in experiment [6] it was 0.879 µM. Besides, the GI50 in experiment [7] is 0.772 µM; in experiment [8] it was 8.36 µM. The TGI in experiment [1] was > 50 µM; in experiment [2] it was 3 µM; in experiment [3], 7.12 µM; in experiment [4], 24.1 µM; in experiment [5] it was > 50 µM; in experiment [6], 1.9 µM. The TGI in experiment [7] was found to be 1.68 µM; in experiment [8] it was 18.6 µM.

On to `Cc1ccc(S(=O)(=O)c2nc(-c3ccccc3)oc2S(C)(=O)=O)cc1`, for which the GI50 in experiment [1] was 1.7 µM; in experiment [2], 2.05 µM; in experiment [3] it was 2 µM; in experiment [4], 6.39 µM; in experiment [5] it was 14.2 µM; in experiment [6], 1.9 µM. In addition, the figures for the GI50 in experiment [7] and in experiment [8] were 1.52 µM and 6.73 µM, respectively. Also, the TGI is 3.1 µM in experiment [1]; 4.21 µM in experiment [2]; 7.69 µM in experiment [3]; 18 µM in experiment [4]; 27.3 µM in experiment [5]; 3.68 µM in experiment [6]. Moreover, the TGI in experiment [7] was found to be 3.3 µM; in experiment [8] it was 22.6 µM.

As to `Nc1c(C(=O)c2cccc(C#CCN3CCCCC3)c2)cnn1-c1ccc(F)cc1`, the GI50 is > 25 µM in experiment [1]; > 25 µM in experiment [2]; 14.2 µM in experiment [3]; > 25 µM in experiment [4]; > 25 µM in experiment [5]; > 25 µM in experiment [6]. In addition, the GI50 was > 18.9 µM in experiment [7] and > 22.5 µM in experiment [8]. For the same compound, the TGI in experiment [1], in experiment [2], in experiment [3], in experiment [4], in experiment [5] and in experiment [6] was > 25 µM each time. Also, the TGI in experiment [7] and in experiment [8] was > 25 µM throughout.

With `COc1cccc(CNc2ncnc3c2ncn3C2OC(CO)C(O)C2O)c1O` (centres undefined), the GI50 is 0.058 µM in experiment [1]; 0.159 µM in experiment [2]; 0.0651 µM in experiment [3]; 0.174 µM in experiment [4]; 1.05 µM in experiment [5]; 0.259 µM in experiment [6]. The GI50 was 0.0848 µM in experiment [7] and 0.282 µM in experiment [8]. The TGI in experiment [1] is 1.38 µM; in experiment [2] it was > 100 µM; in experiment [4], 9.96 µM; in experiment [5], > 100 µM; in experiment [6], 4.38 µM; in experiment [8], > 100 µM.

Consider `NC(=O)c1cccnc1`, for which the GI50 in experiment [1] was > 100 µM; in experiment [2], > 100 µM; in experiment [3], 59.8 µM; in experiment [4], > 100 µM; in experiment [5] it was > 100 µM; in experiment [6], > 100 µM. In addition, the GI50 in experiment [7] and in experiment [8] was > 100 µM each time. The TGI in experiment [1], in experiment [2], in experiment [3], in experiment [4], in experiment [5] and in experiment [6] was > 100 µM in each case. Also, the TGI in experiment [7] and in experiment [8] was > 100 µM in each case.

The record behind these values is PubChem BioAssay (NCI).
